≈ marks a conversion by molar mass, not a printed value. Bridge positions count the residues as written; N and C are the ends. Square brackets hold non-standard residues; d marks the D form. Ends that are not written are not given here. Peptide text beside a SMILES is read from it. Orn = NCCC[C@H](N)C(=O)O
Key:
A. baumannii 6043 = format: cell-based, Acinetobacter baumannii; conditions: 6043, 24 h
Protocol: (§1) Assays were performed by Trideum Biosciences (Frederick, MD, USA). Isolates were thawed from −80 °C storage and sub-cultured on trypticase soy agar plates at 37 °C prior to experimentation. A single colony was aseptically picked from the agar plate and released in 30 mL trypticase soy broth and incubated overnight at 37 °C incubator. Following which the bacterial culture was diluted to approximately 10^6 colony forming units (CFU)/mL using 2X cation adjusted Mueller–Hinton broth and added to the dAMP solutions (0, 2, 4, 8, 16, 32, 64, and 128 μg/mL) which had been formulated in water at 256 μg/mL and then serially diluted in media on 96-well pates. For fungal evaluation, potato dextrose broth and potato dextrose agar plates were used. The treated cultures were then incubated for 24 h at 37 °C and pathogen growth was measured by absorbance at 600 nm. Four replicas were included for each dAMP concentration. Each MIC was assigned to the lowest test agent concentration resulting in at least three out of four wells showing no growth based on an optical density (OD) reading of <0.1.

A. baumannii 6838 = format: cell-based, Acinetobacter baumannii; conditions: 6838, 24 h
Protocol: as §1

A. baumannii ATCC 17978 = format: cell-based, Acinetobacter baumannii; conditions: ATCC 17978, 24 h
Protocol: as §1

P. aeruginosa 6186 = format: cell-based, Pseudomonas aeruginosa; conditions: 6186, 24 h
Protocol: as §1

P. aeruginosa ATCC 27853 = format: cell-based, Pseudomonas aeruginosa; conditions: ATCC 27853, 24 h
Protocol: as §1

P. aeruginosa ATCC 19660 = format: cell-based, Pseudomonas aeruginosa; conditions: ATCC 19660, 24 h
Protocol: as §1

Candida albicans Y-326 = format: cell-based; conditions: Y-326, 24 h
Protocol: as §1

[1] = tested on: Candida parapsilosis Y-1761; format: cell-based; conditions: Y-1761, 24 h
Protocol: as §1

[2] = tested on: Aspergillus fumigatus 9651; format: cell-based; conditions: 9651, 24 h
Protocol: as §1

[3] = tested on: Fusarium solani NRRL 28548; format: cell-based; conditions: NRRL 28548, 24 h
Protocol: as §1

[4] = tested on: Mucor circinelloides NRRL 3631; format: cell-based; conditions: NRRL 3631, 24 h
Protocol: as §1

[5] = tested on: Aspergillus fumigatus 9648; format: cell-based; conditions: 9648, 24 h
Protocol: as §1

E. cloacae 6053 = format: cell-based; conditions: 6053, 24 h
Protocol: as §1

[6] = tested on: Aspergillus flavus MYA-1004; format: cell-based; conditions: 24 h
Protocol: as §1

[7] = tested on: Candida parapsilosis Y-1763; format: cell-based; conditions: Y-1763, 24 h
Protocol: as §1

[8] = tested on: Aspergillus flavus MYA-3651; format: cell-based; conditions: 24 h
Protocol: as §1

E. cloacae 6054 = format: cell-based; conditions: 6054, 24 h
Protocol: as §1

[9] = tested on: Absidia corymbifera NRRL 6251; format: cell-based; conditions: NRRL 6251, 24 h
Protocol: as §1

Candida krusei Y-27825 = format: cell-based; conditions: Y-27825, 24 h
Protocol: as §1

Candida albicans Y-6359 = format: cell-based; conditions: Y-6359, 24 h
Protocol: as §1

S. epidermis ATCC 51625 = format: cell-based; conditions: ATCC 51625, 24 h
Protocol: as §1

Candida krusei Y-27803 = format: cell-based; conditions: Y-27803, 24 h
Protocol: as §1

S. aureus B-767 = format: cell-based, Staphylococcus aureus; conditions: B-767, 24 h
Protocol: as §1

MRSA 6381 = format: cell-based, Staphylococcus aureus; conditions: 6381, 24 h
Protocol: as §1

S. aureus 6061 = format: cell-based, Staphylococcus aureus; conditions: 6061, 24 h
Protocol: as §1

MRSA ATCC 33592 = format: cell-based, Staphylococcus aureus; conditions: ATCC 33592, 24 h
Protocol: as §1

MRSA 6313 = format: cell-based, Staphylococcus aureus; conditions: 6313, 24 h
Protocol: as §1

K. pneumonia ATCC 10031 = format: cell-based, Klebsiella pneumoniae; conditions: ATCC 10031, 24 h
Protocol: as §1

K. pneumonia 6069 = format: cell-based, Klebsiella pneumoniae; conditions: 24 h
Protocol: as §1

[10] = tested on: vulvovaginal candidiasis infection; conditions: rats with vulvovaginal candidiasis, oral; cited from earlier work
Excerpt: The dAMPs RP504, RP554 and RP557 were thus tested for their ability to treat a rodent vulvovaginal candidiasis infection. […] A daily dose with a 2% concentration lowered the CFU/sample by more than 4 logs compared to the con ...

| Compound | MIC against A. baumannii 6043 (A. baumannii 6043) | MIC against A. baumannii 6838 (A. baumannii 6838) | MIC against A. baumannii ATCC 17978 (A. baumannii ATCC 17978) | MIC against P. aeruginosa 6186 (P. aeruginosa 6186) | MIC against P. aeruginosa ATCC 27853 (P. aeruginosa ATCC 27853) | MIC against P. aeruginosa ATCC 19660 (P. aeruginosa ATCC 19660) | MIC against Candida albicans Y-326 (Candida albicans Y-326) | MIC against Candida parapsilosis Y-1761 [1] | MIC against Aspergillus fumigatus 9651 [2] | MIC against Fusarium solani NRRL 28548 [3] | MIC against Mucor circinelloides NRRL 3631 [4] | MIC against Aspergillus fumigatus 9648 [5] | MIC against E. cloacae 6053 (E. cloacae 6053) | MIC against Aspergillus flavus MYA-1004 [6] | MIC against Candida parapsilosis Y-1763 [7] | MIC against Aspergillus flavus MYA-3651 [8] | MIC against E. cloacae 6054 (E. cloacae 6054) | MIC against Absidia corymbifera NRRL 6251 [9] | MIC against Candida krusei Y-27825 (Candida krusei Y-27825) | MIC against Candida albicans Y-6359 (Candida albicans Y-6359) | further results |
| --- | --- | --- | --- | --- | --- | --- | --- | --- | --- | --- | --- | --- | --- | --- | --- | --- | --- | --- | --- | --- | --- |
| CSCC[C@@H]1NC(=O)[C@H](C(C)C)NC(=O)[C@H](C(C)C)NC(=O)[C@H](CC(C)C)NC(=O)[C@H](Cc2c[nH]c3ccccc23)NC(=O)[C@H](C(C)C)NC(=O)[C@@H](NC(=O)[C@H](Cc2c[nH]c3ccccc23)NC(=O)[C@@H](N)CCCNC(=N)N)CSSC[C@@H](C(=O)N[C@@H](CCCCN)C(=O)N[C@@H](CCCCN)C(N)=O)NC1=O [RP513] (H-RWCVWLVVMCKK-NH2; disulfide 3-10) | 64 mg/L (≈ 41.3 µM) | 128 mg/L (≈ 82.7 µM) | >128 mg/L | >128 mg/L | >128 mg/L | >128 mg/L | 64 mg/L (≈ 41.3 µM) | >128 mg/L | >128 mg/L | 16 mg/L (≈ 10.3 µM) | 32 mg/L (≈ 20.7 µM) | 128 mg/L (≈ 82.7 µM) | >128 mg/L | >128 mg/L | >128 mg/L | 128 mg/L (≈ 82.7 µM) | >128 mg/L | 32 mg/L (≈ 20.7 µM) | 64 mg/L (≈ 41.3 µM) | 64 mg/L (≈ 41.3 µM) | MIC against S. epidermis ATCC 51625 (S. epidermis ATCC 51625): >128 mg/L; MIC against Candida krusei Y-27803 (Candida krusei Y-27803): 64 mg/L (≈ 41.3 µM); MIC against S. aureus B-767 (S. aureus B-767): >128 mg/L; MIC against MRSA 6381 (MRSA 6381): >128 mg/L; MIC against S. aureus 6061 (S. aureus 6061): >128 mg/L; MIC against MRSA ATCC 33592 (MRSA ATCC 33592): >128 mg/L; MIC against MRSA 6313 (MRSA 6313): >128 mg/L; MIC against K. pneumonia ATCC 10031 (K. pneumonia ATCC 10031): 128 mg/L (≈ 82.7 µM); MIC against K. pneumonia 6069 (K. pneumonia 6069): 128 mg/L (≈ 82.7 µM) |
| CC[C@H](C)[C@H](NC(=O)[C@H](CCCN)NC(=O)[C@H](C)NC(=O)[C@H](CCCN)NC(=O)[C@H](CC(C)C)NC(=O)[C@H](CCCCN)NC(=O)[C@@H](NC(=O)[C@H](CCCCN)NC(=O)[C@@H](NC(=O)[C@H](CCCN)NC(=O)[C@H](C)NC(=O)[C@H](CCCN)NC(=O)[C@H](CC(C)C)NC(=O)[C@H](CCCN)NC(=O)[C@@H](N)Cc1ccccc1)[C@@H](C)CC)C(C)C)C(=O)N[C@@H](CCCN)C(=O)N[C@@H](CC(C)C)C(N)=O [RP555] (H-F[Orn]L[Orn]A[Orn]IKVKL[Orn]A[Orn]I[Orn]L-NH2) | 16 mg/L (≈ 8.37 µM) | 4 mg/L (≈ 2.09 µM) | 4 mg/L (≈ 2.09 µM) | 4 mg/L (≈ 2.09 µM) | 4 mg/L (≈ 2.09 µM) | 8 mg/L (≈ 4.18 µM) | 32 mg/L (≈ 16.7 µM) | 32 mg/L (≈ 16.7 µM) | 64 mg/L (≈ 33.5 µM) | 2 mg/L (≈ 1.05 µM) | 64 mg/L (≈ 33.5 µM) | 64 mg/L (≈ 33.5 µM) | 2 mg/L (≈ 1.05 µM) | >128 mg/L | 16 mg/L (≈ 8.37 µM) | 128 mg/L (≈ 66.9 µM) | 4 mg/L (≈ 2.09 µM) | 4 mg/L (≈ 2.09 µM) | 32 mg/L (≈ 16.7 µM) | 32 mg/L (≈ 16.7 µM) | MIC against S. epidermis ATCC 51625 (S. epidermis ATCC 51625): 2 mg/L (≈ 1.05 µM); MIC against Candida krusei Y-27803 (Candida krusei Y-27803): 32 mg/L (≈ 16.7 µM); MIC against S. aureus B-767 (S. aureus B-767): 8 mg/L (≈ 4.18 µM); MIC against MRSA 6381 (MRSA 6381): 16 mg/L (≈ 8.37 µM); MIC against S. aureus 6061 (S. aureus 6061): 16 mg/L (≈ 8.37 µM); MIC against MRSA ATCC 33592 (MRSA ATCC 33592): 8 mg/L (≈ 4.18 µM); MIC against MRSA 6313 (MRSA 6313): 16 mg/L (≈ 8.37 µM); MIC against K. pneumonia ATCC 10031 (K. pneumonia ATCC 10031): 4 mg/L (≈ 2.09 µM); MIC against K. pneumonia 6069 (K. pneumonia 6069): 16 mg/L (≈ 8.37 µM) |
| OC(Cn1cncn1)(Cn1cncn1)c1ccc(F)cc1F [fluconazole, reference compound] | – | – | – | – | – | – | – | – | – | – | – | – | – | – | – | – | – | – | – | – | reduction in tissue candidiasis infection (in words) [10]: non-significant reduction |
| FKLRAKIKVRLRAKIKL [D4E1, reference compound] | >128 mg/L | 8 mg/L | 16 mg/L | 16 mg/L | 16 mg/L | 32 mg/L | 64 mg/L | 64 mg/L | 64 mg/L | 2 mg/L | 128 mg/L | 128 mg/L | 8 mg/L | 128 mg/L | 64 mg/L | 128 mg/L | 4 mg/L | 2 mg/L | 64 mg/L | 64 mg/L | MIC against S. epidermis ATCC 51625 (S. epidermis ATCC 51625): 4 mg/L; MIC against Candida krusei Y-27803 (Candida krusei Y-27803): 64 mg/L; MIC against S. aureus B-767 (S. aureus B-767): 4 mg/L; MIC against MRSA 6381 (MRSA 6381): 8 mg/L; MIC against S. aureus 6061 (S. aureus 6061): 8 mg/L; MIC against MRSA ATCC 33592 (MRSA ATCC 33592): 8 mg/L; MIC against MRSA 6313 (MRSA 6313): 8 mg/L; MIC against K. pneumonia ATCC 10031 (K. pneumonia ATCC 10031): 32 mg/L; MIC against K. pneumonia 6069 (K. pneumonia 6069): 16 mg/L |
